Experiment: refractive index (other wavelength) (dimensionless); xn = mol fraction of the nth substance listed

CCCC(C)O (stereo not drawn) [pentan-2-ol] + CCCCCCCC[n+]1ccn(C)c1.F[B-](F)(F)F
Minimum deviation
Conditions | refractive index
284.59 K, Liquid mixture 1, Wavelength=623.8 nm, x2 = 0.01 | 1.4096
284.59 K, Liquid mixture 2, Wavelength=623.8 nm, x2 = 0.347 | 1.4237
285.29 K, Liquid mixture 1, Wavelength=623.8 nm, x2 = 0.01 | 1.4093
285.29 K, Liquid mixture 2, Wavelength=623.8 nm, x2 = 0.338 | 1.4232
286.13 K, Liquid mixture 1, Wavelength=623.8 nm, x2 = 0.012 | 1.4091
286.13 K, Liquid mixture 2, Wavelength=623.8 nm, x2 = 0.332 | 1.4227
286.89 K, Liquid mixture 1, Wavelength=623.8 nm, x2 = 0.013 | 1.4088
286.89 K, Liquid mixture 2, Wavelength=623.8 nm, x2 = 0.319 | 1.422
287.65 K, Liquid mixture 1, Wavelength=623.8 nm, x2 = 0.015 | 1.4086
287.65 K, Liquid mixture 2, Wavelength=623.8 nm, x2 = 0.315 | 1.4216
288.25 K, Liquid mixture 1, Wavelength=623.8 nm, x2 = 0.016 | 1.4084
288.25 K, Liquid mixture 2, Wavelength=623.8 nm, x2 = 0.307 | 1.4211
288.92 K, Liquid mixture 1, Wavelength=623.8 nm, x2 = 0.016 | 1.4081
288.92 K, Liquid mixture 2, Wavelength=623.8 nm, x2 = 0.293 | 1.4204
289.54 K, Liquid mixture 1, Wavelength=623.8 nm, x2 = 0.019 | 1.408
289.54 K, Liquid mixture 2, Wavelength=623.8 nm, x2 = 0.288 | 1.42
290.07 K, Liquid mixture 1, Wavelength=623.8 nm, x2 = 0.021 | 1.4079
290.07 K, Liquid mixture 2, Wavelength=623.8 nm, x2 = 0.279 | 1.4195
290.61 K, Liquid mixture 1, Wavelength=623.8 nm, x2 = 0.021 | 1.4077
290.61 K, Liquid mixture 2, Wavelength=623.8 nm, x2 = 0.271 | 1.419
291.08 K, Liquid mixture 1, Wavelength=623.8 nm, x2 = 0.023 | 1.4076
291.08 K, Liquid mixture 2, Wavelength=623.8 nm, x2 = 0.264 | 1.4186
291.55 K, Liquid mixture 1, Wavelength=623.8 nm, x2 = 0.025 | 1.4075
291.55 K, Liquid mixture 2, Wavelength=623.8 nm, x2 = 0.255 | 1.4181
292.02 K, Liquid mixture 1, Wavelength=623.8 nm, x2 = 0.027 | 1.4074
292.02 K, Liquid mixture 2, Wavelength=623.8 nm, x2 = 0.247 | 1.4176
292.46 K, Liquid mixture 1, Wavelength=623.8 nm, x2 = 0.03 | 1.4074
292.46 K, Liquid mixture 2, Wavelength=623.8 nm, x2 = 0.235 | 1.417
292.84 K, Liquid mixture 1, Wavelength=623.8 nm, x2 = 0.031 | 1.4073
292.84 K, Liquid mixture 2, Wavelength=623.8 nm, x2 = 0.229 | 1.4166
293.15 K, Liquid mixture 1, Wavelength=623.8 nm, x2 = 0.035 | 1.4074
293.15 K, Liquid mixture 2, Wavelength=623.8 nm, x2 = 0.221 | 1.4162
293.41 K, Liquid mixture 1, Wavelength=623.8 nm, x2 = 0.037 | 1.4074
293.41 K, Liquid mixture 2, Wavelength=623.8 nm, x2 = 0.211 | 1.4157
293.63 K, Liquid mixture 1, Wavelength=623.8 nm, x2 = 0.04 | 1.4075
293.63 K, Liquid mixture 2, Wavelength=623.8 nm, x2 = 0.206 | 1.4154
293.78 K, Liquid mixture 1, Wavelength=623.8 nm, x2 = 0.041 | 1.4075
293.78 K, Liquid mixture 2, Wavelength=623.8 nm, x2 = 0.202 | 1.4152
293.89 K, Liquid mixture 1, Wavelength=623.8 nm, x2 = 0.044 | 1.4076
293.89 K, Liquid mixture 2, Wavelength=623.8 nm, x2 = 0.201 | 1.4151
293.99 K, Liquid mixture 1, Wavelength=623.8 nm, x2 = 0.045 | 1.4076
293.99 K, Liquid mixture 2, Wavelength=623.8 nm, x2 = 0.197 | 1.4149
294.09 K, Liquid mixture 1, Wavelength=623.8 nm, x2 = 0.047 | 1.4077
294.09 K, Liquid mixture 2, Wavelength=623.8 nm, x2 = 0.193 | 1.4147
294.19 K, Liquid mixture 1, Wavelength=623.8 nm, x2 = 0.048 | 1.4077
294.19 K, Liquid mixture 2, Wavelength=623.8 nm, x2 = 0.189 | 1.4145
294.27 K, Liquid mixture 1, Wavelength=623.8 nm, x2 = 0.05 | 1.4078
294.27 K, Liquid mixture 2, Wavelength=623.8 nm, x2 = 0.188 | 1.4144
294.35 K, Liquid mixture 1, Wavelength=623.8 nm, x2 = 0.053 | 1.4079
294.35 K, Liquid mixture 2, Wavelength=623.8 nm, x2 = 0.184 | 1.4142
294.42 K, Liquid mixture 1, Wavelength=623.8 nm, x2 = 0.054 | 1.4079
294.42 K, Liquid mixture 2, Wavelength=623.8 nm, x2 = 0.18 | 1.414
294.49 K, Liquid mixture 1, Wavelength=623.8 nm, x2 = 0.056 | 1.408
294.49 K, Liquid mixture 2, Wavelength=623.8 nm, x2 = 0.175 | 1.4138
294.54 K, Liquid mixture 1, Wavelength=623.8 nm, x2 = 0.058 | 1.4081
294.54 K, Liquid mixture 2, Wavelength=623.8 nm, x2 = 0.174 | 1.4137
294.6 K, Liquid mixture 1, Wavelength=623.8 nm, x2 = 0.06 | 1.4082
294.6 K, Liquid mixture 2, Wavelength=623.8 nm, x2 = 0.172 | 1.4136
294.64 K, Liquid mixture 1, Wavelength=623.8 nm, x2 = 0.063 | 1.4083
294.64 K, Liquid mixture 2, Wavelength=623.8 nm, x2 = 0.168 | 1.4134
294.68 K, Liquid mixture 1, Wavelength=623.8 nm, x2 = 0.065 | 1.4084
294.68 K, Liquid mixture 2, Wavelength=623.8 nm, x2 = 0.166 | 1.4133
294.73 K, Liquid mixture 1, Wavelength=623.8 nm, x2 = 0.067 | 1.4085
294.73 K, Liquid mixture 2, Wavelength=623.8 nm, x2 = 0.162 | 1.4131
294.77 K, Liquid mixture 1, Wavelength=623.8 nm, x2 = 0.069 | 1.4086
294.77 K, Liquid mixture 2, Wavelength=623.8 nm, x2 = 0.157 | 1.4129
294.8 K, Liquid mixture 1, Wavelength=623.8 nm, x2 = 0.071 | 1.4087
294.8 K, Liquid mixture 2, Wavelength=623.8 nm, x2 = 0.153 | 1.4127
294.83 K, Liquid mixture 1, Wavelength=623.8 nm, x2 = 0.073 | 1.4088
294.83 K, Liquid mixture 2, Wavelength=623.8 nm, x2 = 0.149 | 1.4125
294.87 K, Liquid mixture 1, Wavelength=623.8 nm, x2 = 0.077 | 1.409
294.87 K, Liquid mixture 2, Wavelength=623.8 nm, x2 = 0.145 | 1.4123
294.88 K, Liquid mixture 1, Wavelength=623.8 nm, x2 = 0.079 | 1.4091
294.88 K, Liquid mixture 2, Wavelength=623.8 nm, x2 = 0.143 | 1.4122
294.89 K, Liquid mixture 1, Wavelength=623.8 nm, x2 = 0.083 | 1.4093
294.89 K, Liquid mixture 2, Wavelength=623.8 nm, x2 = 0.141 | 1.4121
294.9 K, Liquid mixture 1, Wavelength=623.8 nm, x2 = 0.085 | 1.4094
294.9 K, Liquid mixture 2, Wavelength=623.8 nm, x2 = 0.139 | 1.412
294.91 K, Liquid mixture 1, Wavelength=623.8 nm, x2 = 0.085 | 1.4094
294.91 K, Liquid mixture 1, Wavelength=623.8 nm, x2 = 0.087 | 1.4095
294.91 K, Liquid mixture 2, Wavelength=623.8 nm, x2 = 0.132 | 1.4117
294.91 K, Liquid mixture 2, Wavelength=623.8 nm, x2 = 0.134 | 1.4118
294.92 K, Liquid mixture 1, Wavelength=623.8 nm, x2 = 0.088 | 1.4095
294.92 K, Liquid mixture 1, Wavelength=623.8 nm, x2 = 0.09 | 1.4096
294.92 K, Liquid mixture 2, Wavelength=623.8 nm, x2 = 0.128 | 1.4115
294.92 K, Liquid mixture 2, Wavelength=623.8 nm, x2 = 0.13 | 1.4116
294.93 K, Liquid mixture 1, Wavelength=623.8 nm, x2 = 0.091 | 1.4097
294.93 K, Liquid mixture 1, Wavelength=623.8 nm, x2 = 0.093 | 1.4098
294.93 K, Liquid mixture 1, Wavelength=623.8 nm, x2 = 0.097 | 1.41
294.93 K, Liquid mixture 1, Wavelength=623.8 nm, x2 = 0.099 | 1.4101
294.93 K, Liquid mixture 2, Wavelength=623.8 nm, x2 = 0.118 | 1.411
294.93 K, Liquid mixture 2, Wavelength=623.8 nm, x2 = 0.122 | 1.4112
294.93 K, Liquid mixture 2, Wavelength=623.8 nm, x2 = 0.124 | 1.4113
294.93 K, Liquid mixture 2, Wavelength=623.8 nm, x2 = 0.126 | 1.4114

85 kPa, Liquid, Wavelength=632.8 nm, Minimum Deviation
Conditions | refractive index
288.19 K, x2 = 0.599 | 1.4284
288.8 K, x2 = 0.899 | 1.4331
288.81 K, x2 = 0.798 | 1.4316
288.98 K, x2 = 0.7 | 1.4298
289.74 K, x2 = 0.599 | 1.428
290.84 K, x2 = 0.798 | 1.4311
290.84 K, x2 = 0.899 | 1.4326
290.99 K, x2 = 0.7 | 1.4293
291.3 K, x2 = 0.599 | 1.4275
292.85 K, x2 = 0.599 | 1.427
292.89 K, x2 = 0.899 | 1.432
292.91 K, x2 = 0.798 | 1.4305
293.05 K, x2 = 0.7 | 1.4287
293.9 K, x2 = 0.4 | 1.422
294.42 K, x2 = 0.599 | 1.4265
294.98 K, x2 = 0.798 | 1.4299
294.98 K, x2 = 0.899 | 1.4314
295.13 K, x2 = 0.7 | 1.4281
295.53 K, x2 = 0.099 | 1.4101
295.95 K, x2 = 0.4 | 1.4213
296.02 K, x2 = 0.3 | 1.4182
296.02 K, x2 = 0.599 | 1.426
296.13 K, x2 = 0.5 | 1.4238
297.03 K, x2 = 0.798 | 1.4293
297.03 K, x2 = 0.899 | 1.4308
297.19 K, x2 = 0.7 | 1.4275
297.57 K, x2 = 0.3 | 1.4177
297.68 K, x2 = 0.5 | 1.4233
297.86 K, x2 = 0.099 | 1.4092
298.01 K, x2 = 0.4 | 1.4207
299.09 K, x2 = 0.3 | 1.4172
299.11 K, x2 = 0.798 | 1.4287
299.11 K, x2 = 0.899 | 1.4303
299.22 K, x2 = 0.2 | 1.4133
299.22 K, x2 = 0.7 | 1.4269
299.24 K, x2 = 0.5 | 1.4229
299.91 K, x2 = 0.099 | 1.4085
300.06 K, x2 = 0.4 | 1.4201
300.66 K, x2 = 0.3 | 1.4167
300.8 K, x2 = 0.2 | 1.4128
300.8 K, x2 = 0.5 | 1.4224
302 K, x2 = 0.099 | 1.4077
302.14 K, x2 = 0.4 | 1.4194
302.24 K, x2 = 0.3 | 1.4162
302.34 K, x2 = 0.5 | 1.4219
302.35 K, x2 = 0.2 | 1.4122
303.8 K, x2 = 0.3 | 1.4156
303.88 K, x2 = 0.2 | 1.4117
304.07 K, x2 = 0.099 | 1.4069
304.17 K, x2 = 0.4 | 1.4187
304.17 K, x2 = 0.5 | 1.4213
305.44 K, x2 = 0.2 | 1.4111
306.2 K, x2 = 0.099 | 1.4061
307.01 K, x2 = 0.2 | 1.4105
